Test results published in patent publication US20210392895A1, “NOVEL OXADIAZOLES” (PI INDUSTRIES LIMITED, priority 2018, published 2021).

Legend:
Pyricularia oryzae = assay: microbe, parasite or virus in culture; type: cell-based; details: 168 h, read-out: control
Rhizoctonia solani = Rhizoctonia solani (rice sheath blight/potato black scurf) in vitro test, radial growth on Potato Dextrose Agar; type: cell-based; details: 168 h, compared to the untreated check, radial growth after seven days, read-out: control
Botrytis cinerea = Botrytis cinerea (gray mold) in vitro test, radial growth on Potato Dextrose Agar; type: cell-based; details: 168 h, compared to the untreated check, radial growth after seven days, read-out: control
Alternaria solani = Alternaria solani (early blight of tomato/potato) in vitro test, radial growth on Potato Dextrose Agar; type: cell-based; details: 168 h, compared to the untreated check, radial growth after seven days, read-out: control
Fusarium culmorum = Fusarium culmorum (foot rot of cereals) in vitro test, radial growth on Potato Dextrose Agar; type: cell-based; details: 168 h, 25° C., seven days, read-out: control compared to the untreated check (radial growth)
Corynespora cassicola = Corynespora cassicola (leaf spot of tomato) in vitro test, radial growth on Potato Dextrose Agar; type: cell-based; details: 168 h, compared to the untreated check, radial growth after seven days, read-out: control
Phakopsora pachyrhizi = Phakopsora pachyrhizi test in soybean (greenhouse, preventive activity, disease severity rating); type: in vivo; details: preventive spray on soybean, compared to the untreated check
Procedure, shortened: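 Greenhouse-raised young soybean plants sprayed with compound at stated rates, then inoculated one day later with 2.1×10^6 P. pachyrhizi spores and held at 25° C, 90% RH. Disease severity (0-100%) rated visually 3, 7, 10 and 15 days after application; % control calculated versus untreated plants.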

Colletotrichum capsici = Colletotrichum capsici (anthracnose) in vitro test, radial growth on Potato Dextrose Agar; details: Colletotrichum truncatum, 168 h, read-out: control
Experimental: Compounds were dissolved in 0.3% DMSO and then added to Potato Dextrose Agar medium just prior to dispensing it into petri dishes. 5 mL medium with compound in the desired concentration was dispensed into 60 mm sterile petri-plates. After solidification, each plate was seeded with a 5 mm size mycelial disc taken form the periphery of an actively growing virulent culture plate. Plates were incubated in growth chambers at 25° C. temperature and 60% relative humidity for seven days and radial growth was measured.

CC(=O)N1CC[C@H](Oc2ccc(-c3noc(C(F)(F)F)n3)cc2)C1 [Compound 2, (S)-1-(3-(4-(5-(trifluoromethyl)-1,2,4-oxadiazol-3-yl)phenoxy)pyrrolidin-1-yl)ethan-1-one]
> 70%: inhibition of growth at 300 ppm (Pyricularia oryzae) | inhibition of growth at 300 ppm (Rhizoctonia solani) | inhibition of growth at 300 ppm (Botrytis cinerea) | inhibition of growth at 300 ppm (Alternaria solani) | inhibition of growth at 300 ppm (Fusarium culmorum) | inhibition of growth at 300 ppm (Corynespora cassicola) | pest or weed control at 500 ppm (Phakopsora pachyrhizi) | inhibition of growth at 300 ppm (Colletotrichum capsici)

CC(=O)N1CCC(Oc2ccc(-c3noc(C(F)(F)F)n3)cc2)CC1 [Compound 95, 1-(4-(4-(5-(trifluoromethyl)-1,2,4-oxadiazol-3-yl)phenoxy)piperidin-1-yl)ethan-1-one]
> 70%: inhibition of growth at 300 ppm (Pyricularia oryzae) | inhibition of growth at 300 ppm (Rhizoctonia solani) | inhibition of growth at 300 ppm (Botrytis cinerea) | inhibition of growth at 300 ppm (Alternaria solani) | inhibition of growth at 300 ppm (Fusarium culmorum) | inhibition of growth at 300 ppm (Corynespora cassicola) | inhibition of growth at 300 ppm (Colletotrichum capsici)

CCC(=O)N1CC(N(C)c2ccc(-c3noc(C(F)(F)F)n3)cc2)C1 [Compound 100, 1-(3-(methyl(4-(5-(trifluoromethyl)-1,2,4-oxadiazol-3-yl)phenyl)amino)azetidin-1-yl)propan-1-one]
> 70%: inhibition of growth at 300 ppm (Pyricularia oryzae) | inhibition of growth at 300 ppm (Rhizoctonia solani) | inhibition of growth at 300 ppm (Botrytis cinerea) | inhibition of growth at 300 ppm (Alternaria solani) | inhibition of growth at 300 ppm (Fusarium culmorum) | inhibition of growth at 300 ppm (Corynespora cassicola) | pest or weed control at 500 ppm (Phakopsora pachyrhizi) | inhibition of growth at 300 ppm (Colletotrichum capsici)
